{
  "source": "paper PMC5734605",
  "about": "(Journal of Medicinal Chemistry, 2017)",
  "target": "TbNMT (Trypanosoma brucei brucei, UniProt Q388H8)",
  "sequence (Q388H8 1-446)": "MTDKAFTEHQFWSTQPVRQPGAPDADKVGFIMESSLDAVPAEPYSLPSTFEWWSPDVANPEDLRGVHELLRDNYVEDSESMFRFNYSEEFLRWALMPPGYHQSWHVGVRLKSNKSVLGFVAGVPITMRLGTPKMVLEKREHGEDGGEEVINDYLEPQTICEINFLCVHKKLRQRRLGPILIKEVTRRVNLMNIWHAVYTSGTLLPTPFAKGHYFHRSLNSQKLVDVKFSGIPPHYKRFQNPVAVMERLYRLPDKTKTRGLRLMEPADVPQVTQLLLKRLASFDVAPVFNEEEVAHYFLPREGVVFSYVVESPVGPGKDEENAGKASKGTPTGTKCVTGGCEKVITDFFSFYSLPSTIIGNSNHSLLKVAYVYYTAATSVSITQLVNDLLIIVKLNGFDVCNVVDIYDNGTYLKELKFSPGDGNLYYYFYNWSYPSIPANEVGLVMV",
  "data": [
    {"compound": "Cc1nn(C)c(C)c1COc1cccc(-c2cccc(C3CCNCC3)c2)c1", "note": "[Compound 17, 4-(3′-((1,3,5-Trimethyl-1H-pyrazol-4-yl)methoxy)-[1,1′-biphenyl]-3-yl)piperidine]", "values": [
      {"measurement": "activity against TbNMT (in words)", "value": "completely inactive"}
    ]},
    {"compound": "3-((2,6-Dichloro-4-(3-(piperidin-4-yl)propyl)phenoxy)methyl)-2-methylpyridine [Compound 70]", "values": [
      {"measurement": "activity against TbNMT (in words)", "value": "no in vitro activity"}
    ]}
  ]
}
